Measured values as given in PubChem BioAssay AID256 (DTP/NCI, 2004).
Several values for one entry are separate records, joined by “and”; a condition that tells them apart may be missing. Identical values can stand only once. Toxic doses and inconclusive results are not listed. The calls were made as follows: active = survival T/C of 150% or more; inactive = T/C below 125% in these data.

System: CD2F1 mice, L1210 leukemia ip, survival T/C
Experiment: NCI In Vivo Anticancer Drug Screen. Data for tumor model L1210 Leukemia (intraperitoneal) in CD2F1 (CDF1) mice
Details: higher = longer survival
How it was run: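 Vehicle-treated tumor-bearing mice served as controls (C) for compound-treated mice (T). Reported figure is T divided by C.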

[1] = endpoint: mean survival time, dose: 100.0 mg/kg/injection, schedule: Q01DX009 (ip), vehicle: saline with Tween-80
[2] = endpoint: mean survival time, dose: 100.0 mg/kg/injection, schedule: Q04DX003 (ip), vehicle: saline with Tween-80
[3] = endpoint: mean survival time, dose: 200.0 mg/kg/injection, schedule: Q01DX009 (ip), vehicle: saline with Tween-80
[4] = endpoint: mean survival time, dose: 200.0 mg/kg/injection, schedule: Q04DX003 (ip), vehicle: saline with Tween-80
[5] = endpoint: mean survival time, dose: 400.0 mg/kg/injection, schedule: Q01DX009 (ip), vehicle: saline with Tween-80
[6] = endpoint: mean survival time, dose: 400.0 mg/kg/injection, schedule: Q04DX003 (ip), vehicle: saline with Tween-80
[7] = endpoint: mean survival time, dose: 100.0 mg/kg/injection, schedule: Q01DX001 (ip), vehicle: saline with Tween-80
[8] = endpoint: mean survival time, dose: 200.0 mg/kg/injection, schedule: Q01DX001 (ip), vehicle: saline with Tween-80
[9] = endpoint: mean survival time, dose: 400.0 mg/kg/injection, schedule: Q01DX001 (ip), vehicle: saline with Tween-80
[10] = endpoint: mean survival time, dose: 12.5 mg/kg/injection, schedule: Q01DX009 (ip), vehicle: saline with Tween-80
[11] = endpoint: mean survival time, dose: 25.0 mg/kg/injection, schedule: Q01DX009 (ip), vehicle: saline with Tween-80
[12] = endpoint: mean survival time, dose: 50.0 mg/kg/injection, schedule: Q01DX009 (ip), vehicle: saline with Tween-80
[13] = endpoint: mean survival time, dose: 5.0 mg/kg/injection, schedule: Q04DX003 (ip), vehicle: saline
[14] = endpoint: mean survival time, dose: 10.0 mg/kg/injection, schedule: Q04DX003 (ip), vehicle: saline
[15] = endpoint: mean survival time, dose: 20.0 mg/kg/injection, schedule: Q04DX003 (ip), vehicle: saline
[16] = endpoint: mean survival time, dose: 50.0 mg/kg/injection, schedule: Q01DX009 (ip), vehicle: Klucel (hydroxypropylcellulose) (HPC)
[17] = endpoint: mean survival time, dose: 100.0 mg/kg/injection, schedule: Q01DX009 (ip), vehicle: Klucel (hydroxypropylcellulose) (HPC)
[18] = endpoint: mean survival time, dose: 200.0 mg/kg/injection, schedule: Q01DX009 (ip), vehicle: Klucel (hydroxypropylcellulose) (HPC)

Measured: T/C

O=C(O)/C(=C/c1ccc(O)cc1)c1ccccc1
inactive: [1] 88 % of control | [2] 101 % of control | [3] 93 % of control | [4] 91 % of control | [5] 87 % of control | [6] 96 % of control

CN1CC=C(c2ccccc2)CC1
inactive: endpoint: mean survival time, dose: 18.8 mg/kg/injection, schedule: Q04DX003 (ip), vehicle: saline 102 % of control | endpoint: mean survival time, dose: 37.5 mg/kg/injection, schedule: Q04DX003 (ip), vehicle: saline 104 % of control | endpoint: mean survival time, dose: 75.0 mg/kg/injection, schedule: Q01DX001 (ip), vehicle: saline 100 % of control

CCN(CC)C(=O)Nc1cc2c3c(c1)CCCN3CCC2
inactive: [2] 98 % of control | [4] 96 % of control | [6] 87 % of control

CC(C)(C)N=C=N[N+](C)(C)Cc1ccccc1
inactive: endpoint: mean survival time, dose: 6.25 mg/kg/injection, schedule: Q01DX009 (ip), vehicle: saline 95 % of control | endpoint: mean survival time, dose: 12.5 mg/kg/injection, schedule: Q01DX009 (ip), vehicle: saline 98 % of control | endpoint: mean survival time, dose: 25.0 mg/kg/injection, schedule: Q01DX009 (ip), vehicle: saline 111 % of control

CSc1cccnn1
inactive: endpoint: mean survival time, dose: 100.0 mg/kg/injection, schedule: Q04DX003 (ip), vehicle: saline 93 % of control | endpoint: mean survival time, dose: 200.0 mg/kg/injection, schedule: Q04DX003 (ip), vehicle: saline 98 % of control | endpoint: mean survival time, dose: 400.0 mg/kg/injection, schedule: Q04DX003 (ip), vehicle: saline 95 % of control

CCOc1ccc(-n2c(=O)c(N=Nc3ccccc3OC)c(O)n(-c3ccc(C)cc3)c2=S)cc1
inactive: [7] 98 % of control | [8] 101 % of control | [9] 97 % of control

O=S(=O)(Cl)OC1C2COC(O2)C(OS(=O)(=O)Cl)C1OS(=O)(=O)Cl (centres undefined)
inactive: [10] 108 % of control | [11] 103 % of control | [12] 102 % of control

COc1cccc2c1CCC1(O)OC(=O)CC21 (centres undefined)
inactive: endpoint: mean survival time, dose: 100.0 mg/kg/injection, schedule: Q01DX001 (ip), vehicle: saline 98 % of control | endpoint: mean survival time, dose: 200.0 mg/kg/injection, schedule: Q01DX001 (ip), vehicle: saline 98 % of control | endpoint: mean survival time, dose: 400.0 mg/kg/injection, schedule: Q01DX001 (ip), vehicle: saline 95 % of control

CC[n+]1cccc2ccccc21
inactive: endpoint: mean survival time, dose: 18.8 mg/kg/injection, schedule: Q01DX009 (ip), vehicle: saline 95 % of control | endpoint: mean survival time, dose: 25.0 mg/kg/injection, schedule: Q04DX003 (ip), vehicle: saline 96 % of control | endpoint: mean survival time, dose: 37.5 mg/kg/injection, schedule: Q01DX009 (ip), vehicle: saline 96 % of control

OC1c2ccccc2C2CC12 (centres undefined)
inactive: [7] 105 % of control | [8] 102 % of control | [9] 105 % of control

CC1(C)C2CC=C(C[P+](c3ccccc3)(c3ccccc3)c3ccccc3)C1C2 (centres undefined)
inactive: endpoint: mean survival time, dose: 5.0 mg/kg/injection, schedule: Q01DX009 (ip), vehicle: saline sonified 109 % of control | [13] 103 % of control | [14] 92 % of control | [15] 87 % of control

CC(=O)Nc1ccc(/C=C2\N=C(c3cccc([N+](=O)[O-])c3)OC2=O)cc1
inactive: endpoint: mean survival time, dose: 100.0 mg/kg/injection, schedule: Q04DX002 (ip), vehicle: saline with Tween-80 100 % of control | endpoint: mean survival time, dose: 200.0 mg/kg/injection, schedule: Q04DX002 (ip), vehicle: saline with Tween-80 100 % of control | endpoint: mean survival time, dose: 400.0 mg/kg/injection, schedule: Q04DX002 (ip), vehicle: saline with Tween-80 91 % of control

CC(C)CC(NC(=O)OCc1ccccc1)C(=O)NCCCCCCCCCCNC(=O)C(CC(C)C)NC(=O)OCc1ccccc1 (centres undefined)
inactive: endpoint: mean survival time, dose: 10.0 mg/kg/injection, schedule: Q01DX Z (ip), vehicle: saline 96 % of control | endpoint: mean survival time, dose: 30.0 mg/kg/injection, schedule: Q01DX Z (ip), vehicle: saline 97 % of control | endpoint: mean survival time, dose: 100.0 mg/kg/injection, schedule: Q01DX Z (ip), vehicle: saline 91 % of control | endpoint: mean survival time, dose: 300.0 mg/kg/injection, schedule: Q01DX Z (ip), vehicle: saline 97 % of control

Cc1cc(C)c(CC2(C)SCCCS2)c(C)c1
inactive: endpoint: median survival time, dose: 50.0 mg/kg/injection, schedule: Q04DX002 (ip), vehicle: saline with Tween-80 100 % of control | endpoint: median survival time, dose: 100.0 mg/kg/injection, schedule: Q04DX002 (ip), vehicle: saline with Tween-80 100 % of control | endpoint: median survival time, dose: 200.0 mg/kg/injection, schedule: Q04DX002 (ip), vehicle: saline with Tween-80 100 % of control | endpoint: median survival time, dose: 400.0 mg/kg/injection, schedule: Q04DX002 (ip), vehicle: saline with Tween-80 110 % of control

CC1=C(/C=C/C(C)=N/NC(N)=S)C(C)(C)CCC1
inactive: [10] 106 % of control | [11] 115 % of control | endpoint: mean survival time, dose: 25.0 mg/kg/injection, schedule: Q04DX003 (ip), vehicle: saline with Tween-80 98 % of control | endpoint: mean survival time, dose: 50.0 mg/kg/injection, schedule: Q04DX003 (ip), vehicle: saline with Tween-80 104 % of control

O=[N+]([O-])c1ccc(C[n+]2ccccc2)cc1
inactive: endpoint: mean survival time, dose: 5.0 mg/kg/injection, schedule: Q01DX009 (ip), vehicle: saline 87 % of control | [13] 104 % of control | endpoint: mean survival time, dose: 10.0 mg/kg/injection, schedule: Q01DX009 (ip), vehicle: saline 90 % of control | [14] 108 % of control | endpoint: mean survival time, dose: 20.0 mg/kg/injection, schedule: Q01DX009 (ip), vehicle: saline 95 % of control | [15] 100 % of control

CC(=O)Oc1c[nH]c(=O)[nH]c1=O
inactive: endpoint: mean survival time, dose: 12.5 mg/kg/injection, schedule: Q01DX009 (ip), vehicle: distilled water + Tween-80 97 % of control and 112 % of control | endpoint: mean survival time, dose: 25.0 mg/kg/injection, schedule: Q01DX009 (ip), vehicle: distilled water + Tween-80 97 % of control and 98 % of control | endpoint: mean survival time, dose: 50.0 mg/kg/injection, schedule: Q01DX009 (ip), vehicle: distilled water + Tween-80 102 % of control and 110 % of control | endpoint: mean survival time, dose: 100.0 mg/kg/injection, schedule: Q01DX009 (ip), vehicle: distilled water + Tween-80 114 % of control and 105 % of control | endpoint: mean survival time, dose: 200.0 mg/kg/injection, schedule: Q01DX009 (ip), vehicle: distilled water + Tween-80 114 % of control and 105 % of control | endpoint: mean survival time, dose: 400.0 mg/kg/injection, schedule: Q01DX009 (ip), vehicle: distilled water + Tween-80 117 % of control and 124 % of control

CC(=O)Nc1ccc(CN2CC(C)N(N)C(C)C2)cc1 (centres undefined)
inactive: endpoint: mean survival time, dose: 12.5 mg/kg/injection, schedule: Q01DX009 (ip), vehicle: Klucel (hydroxypropylcellulose) (HPC) 103 % of control | endpoint: mean survival time, dose: 25.0 mg/kg/injection, schedule: Q01DX009 (ip), vehicle: Klucel (hydroxypropylcellulose) (HPC) 98 % of control | [16] 98 % of control | [17] 101 % of control | [18] 103 % of control | endpoint: mean survival time, dose: 400.0 mg/kg/injection, schedule: Q01DX009 (ip), vehicle: Klucel (hydroxypropylcellulose) (HPC) 89 % of control

COc1ccc(CNC(C)(C#N)c2ccccc2)cc1OC (centres undefined)
inactive: [2] 107 % of control | [4] 93 % of control | [6] 98 % of control

Cn1c(-[n+]2ccccc2)nc2c1c(=O)[nH]c(=O)n2C
inactive: endpoint: mean survival time, dose: 12.5 mg/kg/injection, schedule: Q01DX005 (ip), vehicle: water 100 % of control | endpoint: mean survival time, dose: 25.0 mg/kg/injection, schedule: Q01DX005 (ip), vehicle: water 102 % of control | endpoint: mean survival time, dose: 50.0 mg/kg/injection, schedule: Q01DX005 (ip), vehicle: water 97 % of control | endpoint: mean survival time, dose: 100.0 mg/kg/injection, schedule: Q01DX005 (ip), vehicle: water 94 % of control | endpoint: mean survival time, dose: 200.0 mg/kg/injection, schedule: Q01DX005 (ip), vehicle: water 102 % of control

CC(=O)NC(C)(NC(C)=O)C(=O)O
inactive: [16] 95 % of control | [17] 98 % of control | [18] 95 % of control

CCCCCCCCCCCCCCCC(=O)N1CCN(C)CC1
inactive: [12] 89 % of control | [1] 91 % of control | [2] 93 % of control | [4] 90 % of control

COC(=O)/C(Br)=C/N(Cc1ccccc1)Cc1ccccc1
inactive: endpoint: mean survival time, dose: 100.0 mg/kg/injection, schedule: Q01DX009 (ip), vehicle: saline sonified 101 % of control | [2] 94 % of control | endpoint: mean survival time, dose: 200.0 mg/kg/injection, schedule: Q01DX009 (ip), vehicle: saline sonified 101 % of control | [4] 93 % of control | endpoint: mean survival time, dose: 400.0 mg/kg/injection, schedule: Q01DX009 (ip), vehicle: saline sonified 103 % of control | [6] 96 % of control

O=Cc1ccc(C(=O)O)cc1
inactive: [1] 95 % of control | [3] 98 % of control | [5] 101 % of control
